According to PubChem BioAssay (NCI):
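Interpolation was linear, between the two tested concentrations surrounding the appropriate level; five concentrations were tested over 48 hours in 96-well plates. TGI: total growth inhibition.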

Legend:
Test in all cases: NCI tumour cell line growth inhibition, 48 h
K-562 leukemia = test system: K-562 leukemia
HOP-92 NSCLC = test system: HOP-92 NSCLC
SK-MEL-2 melanoma = test system: SK-MEL-2 melanoma
CAKI-1 renal = test system: CAKI-1 renal
SN12K1 renal = test system: SN12K1 renal
HOP-62 NSCLC = test system: HOP-62 NSCLC
UO-31 renal = test system: UO-31 renal
EKVX NSCLC = test system: EKVX NSCLC
UACC-257 melanoma = test system: UACC-257 melanoma
RPMI-8226 leukemia = test system: RPMI-8226 leukemia
P388 leukemia = test system: P388 leukemia
SW-620 colon = test system: SW-620 colon
DMS 273 small cell lung = test system: DMS 273 small cell lung
HCT-116 colon = test system: HCT-116 colon
HCT-15 colon = test system: HCT-15 colon
CCRF-CEM leukemia = test system: CCRF-CEM leukemia
MOLT-4 leukemia = test system: MOLT-4 leukemia
NCI-H522 lung = test system: NCI-H522 lung
KM20L2 colon = test system: KM20L2 colon
MCF7 breast = test system: MCF7 breast
A498 renal = test system: A498 renal
SNB-75 CNS = test system: SNB-75 CNS
DMS 114 small cell lung = test system: DMS 114 small cell lung
SF-539 CNS = test system: SF-539 CNS
HT29 colon = test system: HT29 colon
SN12C renal = test system: SN12C renal
RXF 393 renal = test system: RXF 393 renal
XF 498 CNS = test system: XF 498 CNS
LOX IMVI melanoma = test system: LOX IMVI melanoma
SNB-19 CNS = test system: SNB-19 CNS
SNB-78 CNS = test system: SNB-78 CNS
IGROV1 ovarian = test system: IGROV1 ovarian
SF-295 CNS = test system: SF-295 CNS
P388/ADR leukemia = test system: P388/ADR leukemia
UACC-62 melanoma = test system: UACC-62 melanoma
OVCAR-8 ovarian = test system: OVCAR-8 ovarian
DLD-1 colon = test system: DLD-1 colon
HOP-18 NSCLC = test system: HOP-18 NSCLC
A549 NSCLC = test system: A549 NSCLC
HCC-2998 colon = test system: HCC-2998 colon
OVCAR-3 ovarian = test system: OVCAR-3 ovarian
NCI-H226 lung = test system: NCI-H226 lung
KM12 colon = test system: KM12 colon
M19-MEL melanoma = test system: M19-MEL melanoma
SK-MEL-5 melanoma = test system: SK-MEL-5 melanoma
MALME-3M melanoma = test system: MALME-3M melanoma
OVCAR-4 ovarian = test system: OVCAR-4 ovarian
NCI-H23 lung = test system: NCI-H23 lung
COLO 205 colon = test system: COLO 205 colon
SK-MEL-28 melanoma = test system: SK-MEL-28 melanoma
U251 CNS = test system: U251 CNS
NCI/ADR-RES ovarian = test system: NCI/ADR-RES ovarian
SF-268 CNS = test system: SF-268 CNS
NCI-H460 lung = test system: NCI-H460 lung
OVCAR-5 ovarian = test system: OVCAR-5 ovarian
SK-OV-3 ovarian = test system: SK-OV-3 ovarian
HL-60(TB) leukemia = test system: HL-60(TB) leukemia

COC1OCC(O)C(NC(=O)N(C)N=O)C1O (stereo not drawn)
TGI (K-562 leukemia): > 100 µM
TGI (HOP-92 NSCLC): > 100 µM
TGI (SK-MEL-2 melanoma): > 100 µM
TGI (CAKI-1 renal): > 100 µM
TGI (SN12K1 renal): > 100 µM
TGI (HOP-62 NSCLC): > 100 µM
TGI (UO-31 renal): > 100 µM
TGI (EKVX NSCLC): > 100 µM
TGI (UACC-257 melanoma): > 100 µM
TGI (RPMI-8226 leukemia): > 100 µM
TGI (P388 leukemia): > 100 µM
TGI (SW-620 colon): > 100 µM
TGI (DMS 273 small cell lung): > 100 µM
TGI (HCT-116 colon): > 100 µM
TGI (HCT-15 colon): > 100 µM
TGI (CCRF-CEM leukemia): > 100 µM
TGI (MOLT-4 leukemia): > 100 µM
TGI (NCI-H522 lung): > 100 µM
TGI (KM20L2 colon): > 100 µM
TGI (MCF7 breast): > 100 µM
TGI (A498 renal): > 100 µM
TGI (SNB-75 CNS): > 100 µM
TGI (DMS 114 small cell lung): > 100 µM
TGI (SF-539 CNS): > 100 µM
TGI (HT29 colon): > 100 µM
TGI (SN12C renal): > 100 µM
TGI (RXF 393 renal): > 100 µM
TGI (XF 498 CNS): > 100 µM
TGI (LOX IMVI melanoma): > 100 µM
TGI (SNB-19 CNS): > 100 µM
TGI (SNB-78 CNS): > 100 µM
TGI (IGROV1 ovarian): > 100 µM
TGI (SF-295 CNS): > 100 µM
TGI (P388/ADR leukemia): > 100 µM
TGI (UACC-62 melanoma): > 100 µM
TGI (OVCAR-8 ovarian): > 100 µM
TGI (DLD-1 colon): > 100 µM
TGI (HOP-18 NSCLC): > 100 µM
TGI (A549 NSCLC): > 100 µM
TGI (HCC-2998 colon): > 100 µM
TGI (OVCAR-3 ovarian): > 100 µM
TGI (NCI-H226 lung): > 100 µM
TGI (KM12 colon): > 100 µM
TGI (M19-MEL melanoma): > 100 µM
TGI (SK-MEL-5 melanoma): > 100 µM
TGI (MALME-3M melanoma): > 100 µM
TGI (OVCAR-4 ovarian): > 100 µM
TGI (NCI-H23 lung): > 100 µM
TGI (COLO 205 colon): > 100 µM
TGI (SK-MEL-28 melanoma): > 100 µM
TGI (U251 CNS): > 100 µM
TGI (NCI/ADR-RES ovarian): > 100 µM
TGI (SF-268 CNS): > 100 µM
TGI (NCI-H460 lung): > 100 µM
TGI (OVCAR-5 ovarian): > 100 µM
TGI (SK-OV-3 ovarian): > 100 µM

CN(C)CCNC(=O)c1cccc2ccc(-c3ccc(Br)cc3)nc12
TGI (K-562 leukemia): 9.2 µM
TGI (HOP-92 NSCLC): 8.43 µM
TGI (SK-MEL-2 melanoma): 9.25 µM
TGI (CAKI-1 renal): 7.15 µM
TGI (SN12K1 renal): 2.63 µM
TGI (HOP-62 NSCLC): 6.09 µM
TGI (UO-31 renal): 3.99 µM
TGI (EKVX NSCLC): 9.08 µM
TGI (UACC-257 melanoma): 10.7 µM
TGI (RPMI-8226 leukemia): 5.93 µM
TGI (P388 leukemia): 8.48 µM
TGI (SW-620 colon): 5.9 µM
TGI (DMS 273 small cell lung): 5.81 µM
TGI (HCT-116 colon): 5.13 µM
TGI (HCT-15 colon): 12.5 µM
TGI (CCRF-CEM leukemia): 7.75 µM
TGI (MOLT-4 leukemia): 1.48 µM
TGI (NCI-H522 lung): 4.21 µM
TGI (KM20L2 colon): 11.5 µM
TGI (MCF7 breast): 13.8 µM
TGI (A498 renal): 5.49 µM
TGI (SNB-75 CNS): 10.7 µM
TGI (DMS 114 small cell lung): 9.8 µM
TGI (SF-539 CNS): 11.4 µM
TGI (HT29 colon): 7.24 µM
TGI (SN12C renal): 13.5 µM
TGI (RXF 393 renal): 13.1 µM
TGI (XF 498 CNS): 6.94 µM
TGI (LOX IMVI melanoma): 4.82 µM
TGI (SNB-19 CNS): 16.7 µM
TGI (SNB-78 CNS): 22.5 µM
TGI (IGROV1 ovarian): 13.2 µM
TGI (SF-295 CNS): 14.8 µM
TGI (P388/ADR leukemia): 4.44 µM
TGI (UACC-62 melanoma): 3.6 µM
TGI (OVCAR-8 ovarian): 4.76 µM
TGI (DLD-1 colon): 10.8 µM
TGI (HOP-18 NSCLC): 8.25 µM
TGI (A549 NSCLC): 4.29 µM
TGI (HCC-2998 colon): 6.32 µM
TGI (OVCAR-3 ovarian): 12.6 µM
TGI (NCI-H226 lung): 4.82 µM
TGI (KM12 colon): 15.5 µM
TGI (M19-MEL melanoma): 6.15 µM
TGI (HL-60(TB) leukemia): 4.2 µM
TGI (SK-MEL-5 melanoma): 2.92 µM
TGI (MALME-3M melanoma): 8.68 µM
TGI (OVCAR-4 ovarian): 8.5 µM
TGI (NCI-H23 lung): 13.6 µM
TGI (COLO 205 colon): 2.54 µM
TGI (SK-MEL-28 melanoma): 13.2 µM
TGI (U251 CNS): 12.2 µM
TGI (NCI/ADR-RES ovarian): 5.89 µM
TGI (SF-268 CNS): 19.1 µM
TGI (NCI-H460 lung): 2.77 µM
TGI (OVCAR-5 ovarian): 10.2 µM
TGI (SK-OV-3 ovarian): 10.6 µM
